Eight compounds from patent publication US20070243264A1, “Thickened Dilute Hypochlorite” (priority 2006, published 2007) can be followed below.

Where two headings read alike, the source gives them in different places.

Data set [1] can be described thus: Effect of thickeners on stability of dilute hypochlorite. Type of data set: physicochemical. The procedure:
The amount of available halogen oxidant in the composition is determined by placing samples of the composition into about 50 milliliters of distilled water, followed by addition of about 10 milliliters of a 10 weight/weight percent solution of potassium iodide and addition of about 10 milliliters of a 10 volume percent solution of sulfuric acid, the resulting mixture being well stirred. The resulting yellow to brown solution, whose color is the result of oxidation of free iodine ion (I^−) to molecular iodine (I2), was then volumetrically titrated to an essentially colorless endpoint by addition of standardized 0.1 Molar sodium thiosulfate (Na2S2O3) titrant. Calculation then expresses the result as percent of available molecular chlorine (Cl2), that is to say assigning two equivalents per mole of titrated hypohalite oxidant. Stability results are then expressed by repeated assays over time using identically prepared samples resulting from the same composition, normalized to 100 percent representative of the starting available chlorine measured initially.

The nature of data set [2]: Gel formation of hypochlorite thickened with Laponite with added buffers. To be noted: 200 ppm hypochlorite thickened with Laponite; for gel formation: acid added, amount not stated.

`CCCCCCCCS(=O)(=O)[O-].[Na+]` [sodium octyl sulfonate]: the “stability of dilute hypochlorite with surfactant, compared with Vangel ES” value (“stability … compared with Vangel ES” for short) in data set [1] is recorded as “less stable than Vangel ES®”.
As for `Cl` [hydrochloric acid], the gel formation entry in data set [2] was “Gels”.
`CCCCCCCCCCCCOS(=O)(=O)[O-].[Na+]` [sodium lauryl sulfate]: the “stability … compared with Vangel ES” value in data set [1] (comparison with thickeners of Table 4) is on record as “less stable than Vangel ES®”.
Take `OB(O)O` [Boric acid]: the gel result in data set [2] (buffer Wt. % 0.21, pH 8.5) was “Yes”; in data set [2] (buffer Wt. % 0.41, pH 8.4), “Yes”.
With sodium alkylbenzenesulfonate, the “stability … compared with Vangel ES” value in data set [1] is recorded as “less stable than Vangel ES®”.
Regarding `O=C(O)CCC(=O)O` [Succinic acid], the gel entry in data set [2] (buffer Wt. % 0.01, pH 9.2) is reported as “Yes”; in data set [2] (buffer Wt. % 0.04, pH 8.2), “Viscous liquid”.
Regarding `CC(=O)O` [acetic acid], the gel formation result in data set [2] is listed as “Gels”.
`CCCCCCCCCCCCCCCC[N+](C)(C)C.[Cl-]` [trimethylC16 ammonium chloride]: the “stability … compared with Vangel ES” value in data set [1] is “less stable than Vangel ES®”.
